Measured values published in the NIST ThermoML archive (doi:10.1021/acs.jced.8b00807).
Numbers after ± are expanded uncertainties.

assay: Boiling temperature at pressure P; details: 101.3 kPa; Liquid; Ebulliometric method (Recirculating still)

Going from `Cc1ccc(C)cc1` [1,4-dimethylbenzene] to `COC(C)=O` [methyl ethanoate], the “Boiling temperature at pressure P” value falls from 138.34 ± 0.2 °C to 57.1 ± 0.2 °C.

Going from `CC(=O)OCC(C)C` [2-methylpropyl ethanoate] to `CC(=O)OCCC(C)C` [3-methylbutyl ethanoate], the “Boiling temperature at pressure P” value rises from 116.40 ± 0.2 °C to 142.00 ± 0.2 °C.
